Test results reported in patent US10590113B2, “6-hydroxy-4-oxo-1,4-dihydropyrimidine-5-carboxamides as APJ agonists” (priority 2016, dated 2020).
pEC50: −log10 of the molar value.

target: T1, human APJ receptor (Homo sapiens, UniProt P35414); experiment: Intracellular cAMP Accumulation Assay (APJ hcAMP, HTRF); format: cell-based; conditions: human APJ, intracellular cAMP accumulation; read-out: hAPJ cAMP EC50 Potency range
T1 construct: expressed in transfected cells; host or cells: HEK293
T1 sequence (P35414 1-380): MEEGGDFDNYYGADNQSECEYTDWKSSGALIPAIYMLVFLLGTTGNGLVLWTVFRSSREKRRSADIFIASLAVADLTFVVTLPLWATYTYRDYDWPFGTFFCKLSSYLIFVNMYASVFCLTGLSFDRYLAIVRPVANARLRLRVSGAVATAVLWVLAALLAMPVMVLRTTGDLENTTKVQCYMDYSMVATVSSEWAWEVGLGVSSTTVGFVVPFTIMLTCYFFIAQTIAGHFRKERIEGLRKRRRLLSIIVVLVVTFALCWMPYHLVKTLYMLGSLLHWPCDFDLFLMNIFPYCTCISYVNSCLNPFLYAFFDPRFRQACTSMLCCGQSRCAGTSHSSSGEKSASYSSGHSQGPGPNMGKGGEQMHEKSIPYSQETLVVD
Method: Intracellular cAMP Accumulation Assay
HEK293 cells stably expressing human APJ receptor were used to assess the activity of compounds. Cultured cells were detached and resuspended in the cAMP
Homogeneous Time-Resolved Fluorescence (HTRF) assay buffer (Cisbio cat; #62AM4PEJ). The assay was performed in 384-well assay plates (Perkin-Elmer; cat #6008289) according to assay protocol provided by the manufacturer. Serial dilutions of a compound together with assay buffer containing […] IBMX and 2 μM forskolin were added to each well containing 5,000 cells and incubated for 30 minutes at room temperature. Subsequently, cAMP D2 reagent was added in the lysis buffer followed by the EuK antibody (Cisbio; cat #62AM4PEJ) and incubated for 60 min. The fluorescence emission ratio was measured using fluorometer. The intracellular cAMP concentrations (compound-stimulated inhibition of forskolin-mediated cAMP production) were calculated by extrapolation from a standard curve using known cAMP concentrations. The EC50 values were obtained by fitting the data to a sigmoidal concentration-response curve with variable slope.
The EC50 value of each compound is presented at the end of the example description.
The biological activity of the exemplified compounds of this invention determined by the assay described above is shown at the end of each example.

Compound	pEC50
COc1cccc(OC)c1-n1c(COC(C)C)nc(=O)c(C(=O)N2CCC(c3ccc(F)cc3)C2)c1O (single isomer, unassigned) [Example 102, 1-(2,6-dimethoxyphenyl)-5-[3-(4-fluorophenyl)pyrrolidine-1-carbonyl]-6-hydroxy-2-[(propan-2-yloxy)methyl]-1,4-dihydropyrimidin-4-one]	8.00 to 11.00
COc1cccc(OC)c1-n1c(COC2CC2)nc(=O)c(C(=O)N2CCC(c3ccc(F)cc3)C2)c1O (single isomer, unassigned) [Example 103, 2-(cyclopropoxymethyl)-1-(2,6-dimethoxyphenyl)-5-[3-(4-fluorophenyl)pyrrolidine-1-carbonyl]-6-hydroxy-1,4-dihydropyrimidin-4-one]	8.00 to 11.00
COc1cccc(OC)c1-n1c(COC(C)C)nc(=O)c(C(=O)N2CCC(c3ccccc3C)C2)c1O (single isomer, unassigned) [Example 105, 1-(2,6-dimethoxyphenyl)-6-hydroxy-5-[3-(2-methylphenyl)pyrrolidine-1-carbonyl]-2-[(propan-2-yloxy)methyl]-1,4-dihydropyrimidin-4-one]	8.00 to 11.00
COc1cccc(OC)c1-n1c(COC(C)C)nc(=O)c(C(=O)N2CCC(c3ccc(C#N)cc3)C2)c1O (single isomer, unassigned) [Example 107, 4-{1-[1-(2,6-dimethoxyphenyl)-6-hydroxy-4-oxo-2-[(propan-2-yloxy)methyl]-1,4-dihydropyrimidine-5-carbonyl]pyrrolidin-3-yl}benzonitrile]	8.00 to 11.00
COc1cccc(OC)c1-n1c(COC(C)C)nc(=O)c(C(=O)N2CCC(c3ccc(C#N)cc3)C2)c1O (single isomer, unassigned) [Example 108, 4-{1-[1-(2,6-dimethoxyphenyl)-6-hydroxy-4-oxo-2-[(propan-2-yloxy)methyl]-1,4-dihydropyrimidine-5-carbonyl]pyrrolidin-3-yl}benzonitrile]	8.00 to 11.00
CCCCc1nc(=O)c(C(=O)N2CCC(c3cccc(F)c3)C2)c(O)n1[C@@H](CC)c1ccccc1 (single isomer, unassigned) [Example 115]	8.00 to 11.00
CCCCc1nc(=O)c(C(=O)N2CCC(c3cccc(F)c3)C2)c(O)n1[C@@H](CC)c1ccccc1 (single isomer, unassigned) [Example 119]	8.00 to 11.00
COc1ccccc1C1CCN(C(=O)c2c(O)n(-c3c(OC)cccc3OC)c(COC(C)C)nc2=O)C1 (single isomer, unassigned) [Example 160, 1-(2,6-dimethoxyphenyl)-6-hydroxy-5-[3-(2-methoxyphenyl)pyrrolidine-1-carbonyl]-2-[(propan-2-yloxy)methyl]-1,4-dihydropyrimidin-4-one]	8.00 to 11.00
COc1ccccc1C1CCN(C(=O)c2c(O)n(-c3c(OC)cccc3OC)c(COC(C)C)nc2=O)C1 (single isomer, unassigned) [Example 161, 1-(2,6-dimethoxy-phenyl)-6-hydroxy-5-[3-(2-methoxy-phenyl)pyrrolidine-1-carbonyl]-2-[(propan-2-yloxy)methyl]-1,4-dihydropyrimidin-4-one]	8.00 to 11.00
COc1cccc(OC)c1-n1c(COC(C)C)nc(=O)c(C(=O)N2CCC(c3ccc(F)cc3F)C2)c1O (single isomer, unassigned) [Example 162, 5-[3-(2,4-difluorophenyl)pyrrolidine-1-carbonyl]-1-(2,6-dimethoxyphenyl)-6-hydroxy-2-[(propan-2-yloxy)methyl]-1,4-dihydropyrimidin-4-one]	8.00 to 11.00
COc1cccc(OC)c1-n1c(COC(C)C)nc(=O)c(C(=O)N2CCC(c3ccc(F)cc3F)C2)c1O (single isomer, unassigned) [Example 163, 5-[3-(2,4-difluorophenyl)pyrrolidine-1-carbonyl]-1-(2,6-dimethoxyphenyl)-6-hydroxy-2-[(propan-2-yloxy)methyl]-1,4-dihydropyrimidin-4-one]	8.00 to 11.00
COc1cccc(OC)c1-n1c(COC(C)C)nc(=O)c(C(=O)N2CCC(c3c(F)cccc3F)C2)c1O (single isomer, unassigned) [Example 164, 5-[3-(2,6-difluorophenyl)pyrrolidine-1-carbonyl]-1-(2,6-dimethoxyphenyl)-6-hydroxy-2-[(propan-2-yloxy)methyl]-1,4-dihydropyrimidin-4-one]	8.00 to 11.00

The next lines start with the values.

pEC50	Compound
8.00 to 11.00	COc1cccc(OC)c1-n1c(COC(C)C)nc(=O)c(C(=O)N2CCC(c3ccccc3C#N)C2)c1O (single isomer, unassigned) [Example 165, 2-{1-[1-(2,6-dimethoxyphenyl)-6-hydroxy-4-oxo-2-[(propan-2-yloxy)methyl]-1,4-dihydropyrimidine-5-carbonyl]pyrrolidin-3-yl}benzonitrile]
8.00 to 11.00	COc1cccc(OC)c1-n1c(COC(C)C)nc(=O)c(C(=O)N2CCC(c3c(F)cccc3F)C2)c1O (single isomer, unassigned) [Example 166, 5-[3-(2,6-difluorophenyl)pyrrolidine-1-carbonyl]-1-(2,6-dimethoxyphenyl)-6-hydroxy-2-[(propan-2-yloxy)methyl]-1,4-dihydropyrimidin-4-one]
8.00 to 11.00	COc1cccc(OC)c1-n1c(COC(C)C)nc(=O)c(C(=O)N2CCC(c3ccccc3C#N)C2)c1O (single isomer, unassigned) [Example 167]
8.00 to 11.00	COc1cccc(OC)c1-n1c(CCC2CC2)nc(=O)c(C(=O)N2CCC(c3ncc(F)cc3F)C2)c1O (single isomer, unassigned) [Example 168, 2-(2-cyclopropylethyl)-5-[3-(3,5-difluoropyridin-2-yl)pyrrolidine-1-carbonyl]-1-(2,6-dimethoxyphenyl)-6-hydroxy-1,4-dihydropyrimidin-4-one]
8.00 to 11.00	COc1cccc(OC)c1-n1c(CCC2CC2)nc(=O)c(C(=O)N2CCC(c3ncc(F)cc3F)C2)c1O (single isomer, unassigned) [Example 169, 2-(2-cyclopropylethyl)-5-[3-(3,5-difluoropyridin-2-yl)pyrrolidine-1-carbonyl]-1-(2,6-dimethoxyphenyl)-6-hydroxy-1,4-dihydropyrimidin-4-one]
8.00 to 11.00	COc1cccc(OC)c1-n1c(CCC2CC2)nc(=O)c(C(=O)N2CCC(c3ccc(Cl)cn3)C2)c1O (single isomer, unassigned) [Example 170, 5-[3-(5-chloropyridin-2-yl)pyrrolidine-1-carbonyl]-2-(2-cyclopropylethyl)-1-(2,6-dimethoxyphenyl)-6-hydroxy-1,4-dihydropyrimidin-4-one]
8.00 to 11.00	COc1cccc(OC)c1-n1c(CCC2CC2)nc(=O)c(C(=O)N2CCC(c3ccc(Cl)cn3)C2)c1O (single isomer, unassigned) [Example 171, 5-[3-(5-chloropyridin-2-yl)pyrrolidine-1-carbonyl]-2-(2-cyclopropylethyl)-1-(2,6-dimethoxyphenyl)-6-hydroxy-1,4-dihydropyrimidin-4-one]
8.00 to 11.00	COc1cccc(OC)c1-n1c(CCC2CC2)nc(=O)c(C(=O)N2CCC(c3ccc(F)cn3)C2)c1O (single isomer, unassigned) [Example 175, 2-(2-cyclopropylethyl)-1-(2,6-dimethoxyphenyl)-5-[3-(5-fluoropyridin-2-yl)pyrrolidine-1-carbonyl]-6-hydroxy-1,4-dihydropyrimid in-4-one]
8.00 to 11.00	COc1cccc(OC)c1-n1c(CCC2CC2)nc(=O)c(C(=O)N2CCC(c3ncc(Cl)cc3F)C2)c1O (single isomer, unassigned) [Example 176, 5-[3-(5-chloro-3-fluoropyridin-2-yl)pyrrolidine-1-carbonyl]-2-(2-cyclopropylethyl)-1-(2,6-dimethoxyphenyl)-6-hydroxy-1,4-dihydropyrimidin-4-one]
8.00 to 11.00	COc1cccc(OC)c1-n1c(CCC2CC2)nc(=O)c(C(=O)N2CCC(c3ccc(F)cn3)C2)c1O (single isomer, unassigned) [Example 177, 2-(2-cyclopropylethyl)-1-(2,6-dimethoxyphenyl)-5-[3-(5-fluoropyridin-2-yl)pyrrolidine-1-carbonyl]-6-hydroxy-1,4-dihydropyrimidin-4-one]
8.00 to 11.00	COc1cccc(OC)c1-n1c(CCC2CC2)nc(=O)c(C(=O)N2CCC(c3ncccc3F)C2)c1O (single isomer, unassigned) [Example 178, 2-(2-cyclopropylethyl)-1-(2,6-dimethoxyphenyl)-5-[3-(3-fluoropyridin-2-yl)pyrrolidine-1-carbonyl]-6-hydroxy-1,4-dihydropyrimidin-4-one]
8.00 to 11.00	COc1cccc(OC)c1-n1c(CCC2CC2)nc(=O)c(C(=O)N2CCC(c3ncccc3F)C2)c1O (single isomer, unassigned) [Example 179, 2-(2-cyclopropylethyl)-1-(2,6-dimethoxyphenyl)-5-[3-(3-fluoropyridin-2-yl)pyrrolidine-1-carbonyl]-6-hydroxy-1,4-dihydropyrimidin-4-one]
